In PubChem BioAssay (NCI) one finds TGI and GI50 data, which are given here for 12 compounds.

“And” between values parts separate entries of the source, which are not always exact repeats. Identical values can stand only once.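 Five compound concentrations were applied to cells in 96-well plates for 48 hours; endpoints were derived by simple linear interpolation of the resulting dose-response curve. GI50 marks 50% less growth. TGI denotes the concentration required for complete inhibition of growth.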 Where only a bound is given, the exact number is not on record here.

Among the test systems are CAKI-1 renal; HCC-2998 colon; KM12 colon; MALME-3M melanoma; SF-268 CNS; SNB-78 CNS; SR leukemia; MCF7 breast; RPMI-8226 leukemia; DMS 114 small cell lung.
Holding throughout (test): NCI tumour cell line growth inhibition, 48 h

As for `CCOC(=N)CC(=O)Nc1ccc(Cl)cc1`, the TGI with CAKI-1 renal, in the assay with HCC-2998 colon, in the assay on KM12 colon, in the assay with MALME-3M melanoma, in the assay on SF-268 CNS and with SNB-78 CNS was > 100 µM in each case. Also, the TGI in the assay with SR leukemia is > 100 µM.

Turning to `COc1cc2oc(=O)cc(C)c2cc1[N+](=O)[O-]`, the TGI in the assay on CAKI-1 renal is > 51.5 µM; in the assay with HCC-2998 colon it was 22.2 µM; with KM12 colon, > 57.3 µM; in the assay with MALME-3M melanoma it was 49.5 µM; in the assay with MCF7 breast, > 100 µM; in the assay on RPMI-8226 leukemia it was > 75.3 µM. For the same compound, the TGI is 45 µM in the assay with SF-268 CNS and > 100 µM in the assay on SR leukemia.

Turning to `S=CN1CCCCC1`, the TGI in the assay on CAKI-1 renal, with HCC-2998 colon, with KM12 colon, in the assay with MALME-3M melanoma, in the assay with MCF7 breast and in the assay with RPMI-8226 leukemia was > 100 µM throughout. Besides, the TGI in the assay on SF-268 CNS and with SR leukemia was > 100 µM in each case.

`O=C(CCN1CCN(c2cccc(Cl)c2)CC1)N1CCc2c([nH]c3ccccc23)C1c1cccnc1` (stereo not given): the TGI is 14.3 µM in the assay with CAKI-1 renal; 4.04 µM and 8.05 µM with HCC-2998 colon; 15.9 µM in the assay with KM12 colon; 36.8 µM in the assay on MALME-3M melanoma; 9.97 µM with SNB-78 CNS; 7.83 µM and 27 µM in the assay on SR leukemia. Also, the GI50 with HCC-2998 colon was 2.91 µM; in the assay on KM12 colon, 5.04 µM; in the assay on MALME-3M melanoma, 14.9 µM; in the assay with SR leukemia it was 5.06 µM.

As to `CC(C)C[C@@H](NC(=O)[C@@H](Cc1ccccc1)NC(=O)c1cnccn1)B1O[C@H]2[C@H](O)[C@@H](C(=O)NCCCC[C@@H]3NC(=O)[C@@H](Cc4ccccc4)NC(=O)[C@H](CC(=O)O)NC(=O)CNC(=O)[C@H](CCCN=C(N)N)NC3=O)O[C@@H](CN)[C@H]2O1`, the GI50 in the assay with CAKI-1 renal is 0.00768 µM and 0.0148 µM; in the assay on HCC-2998 colon, 0.016 µM and 0.00799 µM; in the assay with KM12 colon it was 0.0131 µM and 0.0057 µM; with MALME-3M melanoma, 0.00457 µM and 0.005 µM; with MCF7 breast, 0.00413 µM and 0.005 µM; with RPMI-8226 leukemia, 0.00373 µM and 0.005 µM. The GI50 with SF-268 CNS is 0.00877 µM and 0.00535 µM; with SR leukemia it was 0.00261 µM. Further, the TGI was 0.0525 µM and 0.0905 µM in the assay with CAKI-1 renal; 0.0323 µM and 0.0165 µM with HCC-2998 colon; 0.0437 µM and 0.0177 µM with KM12 colon; 0.127 µM and 0.591 µM in the assay on MALME-3M melanoma; 0.789 µM in the assay on MCF7 breast; 0.267 µM and 1.04 µM with RPMI-8226 leukemia. Moreover, the TGI in the assay with SF-268 CNS was 0.0387 µM and 0.0574 µM.

Regarding `Nc1c(C(=O)Nc2ccccc2)sc2nc3c(cc12)CCCCCC3`, the GI50 is 0.526 µM in the assay on CAKI-1 renal; 0.485 µM in the assay on HCC-2998 colon; 0.398 µM in the assay on KM12 colon; 1.29 µM with MALME-3M melanoma; 0.288 µM with MCF7 breast; 0.379 µM with RPMI-8226 leukemia. Also, the GI50 in the assay on SF-268 CNS was 1.14 µM; in the assay on SR leukemia, 0.138 µM. Also, the TGI came to 16 µM with CAKI-1 renal; 17.6 µM with KM12 colon; 19.4 µM with MALME-3M melanoma; 11.8 µM in the assay with MCF7 breast; 15.7 µM in the assay with RPMI-8226 leukemia; 20.1 µM in the assay with SF-268 CNS. Further, the TGI in the assay with SR leukemia stood at 30.9 µM.

For the compound `COc1ccc(C(=O)Cn2c(C(=O)c3ccc(OC)cc3)nc3ccccc32)cc1`, the GI50 is 1.94 µM with CAKI-1 renal; 5.64 µM in the assay with HCC-2998 colon; 1.16 µM in the assay with KM12 colon; 2.91 µM in the assay with MALME-3M melanoma; 1.36 µM with MCF7 breast; 1.52 µM in the assay on RPMI-8226 leukemia. Also, the results for the GI50 in the assay with SF-268 CNS and in the assay on SR leukemia were 6.25 µM and 0.557 µM, respectively. For the same compound, the TGI was > 100 µM in the assay with CAKI-1 renal; > 100 µM in the assay with HCC-2998 colon; > 100 µM with KM12 colon; > 100 µM in the assay with MALME-3M melanoma; > 100 µM with MCF7 breast; 8.28 µM with RPMI-8226 leukemia. In the assay with SF-268 CNS, the TGI was > 100 µM.

On to `COC(=O)C1(C)C=C(Nc2ccccc2)C(=O)N1c1ccccc1` (stereo not given), for which the TGI with CAKI-1 renal, in the assay with DMS 114 small cell lung, in the assay with HCC-2998 colon, in the assay with KM12 colon, with MALME-3M melanoma and with RPMI-8226 leukemia was > 100 µM each time. Besides, the TGI in the assay with SF-268 CNS and in the assay on SNB-78 CNS was > 100 µM in each case.

For the compound `COc1ccc2[nH]cc(CCNC(C)=O)c2c1`, the TGI in the assay on CAKI-1 renal was > 100 µM; in the assay with DMS 114 small cell lung, > 100 µM; in the assay on KM12 colon, > 100 µM; in the assay on MALME-3M melanoma it was > 100 µM; with RPMI-8226 leukemia, 57.1 µM; in the assay with SF-268 CNS, > 100 µM. Besides, the TGI in the assay with SNB-78 CNS is > 100 µM.

As to `O=C1c2ccccc2-c2c1c1ccccc1c(=O)n2CCCNCCCn1c2c(c3ccccc3c1=O)C(=O)c1ccccc1-2`, the GI50 is 8.12 µM in the assay on CAKI-1 renal; 6.82 µM in the assay with HCC-2998 colon; 2.9 µM with KM12 colon; 12.6 µM in the assay with MALME-3M melanoma; 1.33 µM in the assay on MCF7 breast; 2.58 µM in the assay on RPMI-8226 leukemia. Moreover, the GI50 with SF-268 CNS is 7.13 µM; with SR leukemia it was 14.3 µM. For the same compound, the TGI with CAKI-1 renal is 17.5 µM; with HCC-2998 colon, 17.7 µM; in the assay with KM12 colon, 9.65 µM; in the assay with MALME-3M melanoma, 26.2 µM; in the assay with MCF7 breast, > 10.5 µM; in the assay with RPMI-8226 leukemia, 15.9 µM. For the same compound, the TGI was > 30.6 µM with SF-268 CNS and > 50 µM with SR leukemia.

Turning to `Cc1cc2c(c3c1c1ccccc1n3C)C(=O)C=CC2=O`, the TGI with CAKI-1 renal was > 70.2 µM; with HCC-2998 colon, > 92.5 µM; with KM12 colon, 57.9 µM; with MALME-3M melanoma, > 82.6 µM; with MCF7 breast, 25.8 µM; with RPMI-8226 leukemia it was 26.5 µM. For the same compound, the TGI was found to be 70.5 µM in the assay on SF-268 CNS, 98.7 µM in the assay on SNB-78 CNS and 4.56 µM in the assay on SR leukemia.

Take `C/C(CN1C(=O)c2ccccc2C1=O)=N\NS(=O)(=O)c1cccc([N+](=O)[O-])c1`: the TGI in the assay on CAKI-1 renal, in the assay with HCC-2998 colon, with KM12 colon, in the assay on MALME-3M melanoma, in the assay with RPMI-8226 leukemia and with SF-268 CNS was > 100 µM in each case. Moreover, the TGI in the assay with SNB-78 CNS was > 100 µM.
